For six compounds, ΔTm results are on record in ChEMBL document CHEMBL1145498, “A systematic interaction map of validated kinase inhibitors with Ser/Thr kinases” (Proc Natl Acad Sci U S A, 2007).

What is called ΔTm is the change in melting temperature against a reference sample.

Experiment [1] addresses Calcium/calmodulin-dependent protein kinase type 1D (Homo sapiens) (UniProt Q8IU85).
Experiment [2] concerns the target Calcium/calmodulin-dependent protein kinase type 1G (Homo sapiens) (UniProt Q96NX5).
Experiment [3] deals with Cyclin-dependent kinase 6 (Homo sapiens) (UniProt Q00534).
Cyclin-dependent kinase 6 (Homo sapiens), sequence (Q00534 whole entry): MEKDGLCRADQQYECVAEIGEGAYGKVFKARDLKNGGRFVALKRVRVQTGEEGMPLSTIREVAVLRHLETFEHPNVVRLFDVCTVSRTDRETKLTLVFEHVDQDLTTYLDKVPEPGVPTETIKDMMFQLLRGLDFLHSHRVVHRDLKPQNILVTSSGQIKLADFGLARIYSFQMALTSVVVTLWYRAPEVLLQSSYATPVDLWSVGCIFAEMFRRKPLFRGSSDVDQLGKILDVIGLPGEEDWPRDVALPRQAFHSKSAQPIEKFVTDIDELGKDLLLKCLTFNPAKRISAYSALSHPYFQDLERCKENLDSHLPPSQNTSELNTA
Experiment [4] deals with Dual specificity protein kinase CLK1 (Homo sapiens) (UniProt P49759).
Dual specificity protein kinase CLK1 (Homo sapiens), sequence (P49759 whole entry, looked up): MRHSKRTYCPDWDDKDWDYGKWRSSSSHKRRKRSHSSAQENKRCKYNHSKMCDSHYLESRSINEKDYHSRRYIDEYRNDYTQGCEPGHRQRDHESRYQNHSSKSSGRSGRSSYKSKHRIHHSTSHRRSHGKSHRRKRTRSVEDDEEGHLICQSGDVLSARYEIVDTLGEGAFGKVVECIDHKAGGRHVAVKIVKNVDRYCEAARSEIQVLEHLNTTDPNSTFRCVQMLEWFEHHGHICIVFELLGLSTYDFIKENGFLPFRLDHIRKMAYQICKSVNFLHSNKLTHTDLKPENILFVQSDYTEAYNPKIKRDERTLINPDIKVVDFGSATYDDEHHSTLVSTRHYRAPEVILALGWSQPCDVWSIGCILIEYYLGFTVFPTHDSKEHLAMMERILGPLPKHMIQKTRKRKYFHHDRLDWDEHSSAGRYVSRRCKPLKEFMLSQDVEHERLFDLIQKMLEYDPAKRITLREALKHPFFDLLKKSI
Experiment [5] addresses Death-associated protein kinase 3 (Homo sapiens) (UniProt O43293).
Experiment [6] concerns the target Dual specificity mitogen-activated protein kinase kinase 2 (Homo sapiens, UniProt P36507).
In experiment [7] the target is Mitogen-activated protein kinase 3 (Homo sapiens, UniProt P27361).
Mitogen-activated protein kinase 3, sequence (P27361 whole entry): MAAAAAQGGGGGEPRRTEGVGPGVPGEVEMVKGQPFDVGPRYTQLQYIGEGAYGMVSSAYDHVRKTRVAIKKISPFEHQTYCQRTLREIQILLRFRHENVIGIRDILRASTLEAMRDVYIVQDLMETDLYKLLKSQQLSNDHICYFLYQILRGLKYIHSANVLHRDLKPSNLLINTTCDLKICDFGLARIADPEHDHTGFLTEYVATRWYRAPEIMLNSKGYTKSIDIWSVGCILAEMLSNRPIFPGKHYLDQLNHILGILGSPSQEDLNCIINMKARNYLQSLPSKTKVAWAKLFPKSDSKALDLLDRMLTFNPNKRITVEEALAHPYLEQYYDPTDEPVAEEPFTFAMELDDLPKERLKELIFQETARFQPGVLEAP
For experiment [8], the target named is T1, Serine/threonine-protein kinase Nek2 (Homo sapiens) (UniProt P51955).
T1 sequence (whole entry): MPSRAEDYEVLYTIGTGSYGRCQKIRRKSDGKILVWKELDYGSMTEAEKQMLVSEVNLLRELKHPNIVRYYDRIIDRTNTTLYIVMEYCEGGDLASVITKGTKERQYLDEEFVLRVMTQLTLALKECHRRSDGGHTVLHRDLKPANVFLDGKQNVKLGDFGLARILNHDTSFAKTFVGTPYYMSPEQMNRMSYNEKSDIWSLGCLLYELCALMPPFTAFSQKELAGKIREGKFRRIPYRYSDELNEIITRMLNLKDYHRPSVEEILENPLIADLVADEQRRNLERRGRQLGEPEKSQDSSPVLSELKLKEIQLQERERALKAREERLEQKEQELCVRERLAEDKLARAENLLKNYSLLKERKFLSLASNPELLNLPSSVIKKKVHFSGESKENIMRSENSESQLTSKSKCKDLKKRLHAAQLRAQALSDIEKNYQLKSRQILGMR

In experiment [9] the target is Serine/threonine-protein kinase Nek6 (Homo sapiens) (UniProt Q9HC98).
Serine/threonine-protein kinase Nek6 (Homo sapiens), sequence (Q9HC98 whole entry): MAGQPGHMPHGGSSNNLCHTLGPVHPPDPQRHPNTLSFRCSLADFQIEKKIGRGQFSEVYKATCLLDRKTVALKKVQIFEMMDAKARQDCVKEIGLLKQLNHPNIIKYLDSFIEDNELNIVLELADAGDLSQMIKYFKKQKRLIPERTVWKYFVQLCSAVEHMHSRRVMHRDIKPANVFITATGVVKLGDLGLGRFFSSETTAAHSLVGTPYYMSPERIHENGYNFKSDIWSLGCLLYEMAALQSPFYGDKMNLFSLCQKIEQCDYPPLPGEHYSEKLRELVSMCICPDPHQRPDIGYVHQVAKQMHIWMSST
In experiment [10] the target is Serine/threonine-protein kinase OSR1 (Homo sapiens) (UniProt O95747).
Serine/threonine-protein kinase OSR1 (Homo sapiens), sequence (O95747 2-527 limits assumed): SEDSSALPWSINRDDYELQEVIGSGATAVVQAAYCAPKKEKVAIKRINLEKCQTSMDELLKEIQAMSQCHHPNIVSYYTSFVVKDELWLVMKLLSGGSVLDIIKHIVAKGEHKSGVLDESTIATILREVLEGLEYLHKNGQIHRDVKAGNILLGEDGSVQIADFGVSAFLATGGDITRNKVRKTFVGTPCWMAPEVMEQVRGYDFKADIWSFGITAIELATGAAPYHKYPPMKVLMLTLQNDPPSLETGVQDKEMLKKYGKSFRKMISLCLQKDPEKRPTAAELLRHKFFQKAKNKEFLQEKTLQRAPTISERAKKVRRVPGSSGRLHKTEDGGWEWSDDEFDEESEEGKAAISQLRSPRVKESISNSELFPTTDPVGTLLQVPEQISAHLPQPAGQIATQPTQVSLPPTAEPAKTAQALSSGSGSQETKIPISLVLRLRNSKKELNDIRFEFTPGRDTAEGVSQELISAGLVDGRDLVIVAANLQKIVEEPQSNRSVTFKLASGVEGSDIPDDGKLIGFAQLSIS
In experiment [11] the target is T2, 3-phosphoinositide-dependent protein kinase 1 (Homo sapiens) (UniProt O15530).
T2 sequence (whole entry): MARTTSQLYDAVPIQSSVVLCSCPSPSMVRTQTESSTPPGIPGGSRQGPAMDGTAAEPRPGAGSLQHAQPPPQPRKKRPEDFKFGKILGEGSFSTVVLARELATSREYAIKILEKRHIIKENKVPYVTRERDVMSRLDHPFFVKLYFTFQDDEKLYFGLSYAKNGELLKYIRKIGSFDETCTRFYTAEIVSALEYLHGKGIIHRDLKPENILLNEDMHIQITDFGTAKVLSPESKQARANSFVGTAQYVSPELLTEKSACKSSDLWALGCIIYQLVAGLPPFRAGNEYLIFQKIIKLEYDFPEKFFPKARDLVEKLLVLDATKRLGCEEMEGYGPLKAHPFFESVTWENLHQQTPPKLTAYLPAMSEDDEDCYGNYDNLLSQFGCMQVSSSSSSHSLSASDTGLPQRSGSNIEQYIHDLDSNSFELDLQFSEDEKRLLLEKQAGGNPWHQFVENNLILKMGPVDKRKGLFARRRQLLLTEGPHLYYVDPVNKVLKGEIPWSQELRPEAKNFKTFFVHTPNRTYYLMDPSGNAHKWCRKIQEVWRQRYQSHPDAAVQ

Experiment [12] concerns the target cAMP-dependent protein kinase catalytic subunit alpha (Homo sapiens) (UniProt P17612).
Experiment [13] concerns the target Serine/threonine-protein kinase RIO2 (Homo sapiens) (UniProt Q9BVS4).
The target in experiment [14] is Ribosomal protein S6 kinase alpha-3 (Homo sapiens) (UniProt P51812).
Experiment [15] addresses STE20-like serine/threonine-protein kinase (Homo sapiens) (UniProt Q9H2G2).
Experiment [16] addresses Serine/threonine-protein kinase 16 (Homo sapiens) (UniProt O75716).
The target in experiment [17] is Serine/threonine-protein kinase 38 (Homo sapiens) (UniProt Q15208).
Serine/threonine-protein kinase 38 (Homo sapiens), sequence (Q15208 2-465 limits assumed): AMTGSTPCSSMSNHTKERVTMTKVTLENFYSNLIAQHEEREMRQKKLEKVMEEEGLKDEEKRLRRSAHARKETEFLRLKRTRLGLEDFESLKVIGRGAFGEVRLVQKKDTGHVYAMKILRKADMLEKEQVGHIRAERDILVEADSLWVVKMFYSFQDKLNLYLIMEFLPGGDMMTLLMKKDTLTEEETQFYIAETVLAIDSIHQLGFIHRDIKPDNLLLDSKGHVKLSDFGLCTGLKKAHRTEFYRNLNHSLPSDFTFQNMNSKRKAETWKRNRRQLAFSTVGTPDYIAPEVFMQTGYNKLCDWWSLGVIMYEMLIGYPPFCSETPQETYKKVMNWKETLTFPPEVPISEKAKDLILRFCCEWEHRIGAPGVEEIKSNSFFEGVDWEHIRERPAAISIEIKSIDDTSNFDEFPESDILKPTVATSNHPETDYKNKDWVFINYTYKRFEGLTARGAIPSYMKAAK
Experiment [18] has as its target T3, Serine/threonine-protein kinase 4 (Homo sapiens) (UniProt Q13043).
T3 sequence (whole entry): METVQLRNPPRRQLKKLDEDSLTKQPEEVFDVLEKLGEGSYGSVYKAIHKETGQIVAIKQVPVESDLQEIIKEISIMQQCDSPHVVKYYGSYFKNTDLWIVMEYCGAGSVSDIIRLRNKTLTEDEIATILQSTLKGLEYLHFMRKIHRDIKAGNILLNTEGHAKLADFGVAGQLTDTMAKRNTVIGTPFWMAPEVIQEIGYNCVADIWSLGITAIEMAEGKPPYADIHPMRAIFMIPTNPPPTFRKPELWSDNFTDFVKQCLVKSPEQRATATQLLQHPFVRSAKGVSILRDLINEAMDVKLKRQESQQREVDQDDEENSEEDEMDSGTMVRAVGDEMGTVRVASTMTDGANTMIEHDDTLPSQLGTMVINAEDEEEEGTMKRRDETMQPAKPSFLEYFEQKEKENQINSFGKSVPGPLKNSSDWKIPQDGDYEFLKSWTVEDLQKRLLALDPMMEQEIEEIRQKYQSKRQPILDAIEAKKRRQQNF

The target in experiment [19] is T4, Lymphokine-activated killer T-cell-originated protein kinase (Homo sapiens) (UniProt Q96KB5).
T4 sequence (whole entry): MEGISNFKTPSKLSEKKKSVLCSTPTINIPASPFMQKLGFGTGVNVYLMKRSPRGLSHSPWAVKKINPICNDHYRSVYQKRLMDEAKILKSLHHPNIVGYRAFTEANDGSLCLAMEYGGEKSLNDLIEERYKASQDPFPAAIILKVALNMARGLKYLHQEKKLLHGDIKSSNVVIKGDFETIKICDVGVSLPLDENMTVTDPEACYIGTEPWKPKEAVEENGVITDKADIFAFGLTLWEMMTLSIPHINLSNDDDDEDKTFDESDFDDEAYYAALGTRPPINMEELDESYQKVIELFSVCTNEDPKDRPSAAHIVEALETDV

Experiment [20] has as its target Serine/threonine-protein kinase VRK2 (Homo sapiens) (UniProt Q86Y07).
In experiment [21] the target is Serine/threonine-protein kinase 25 (Homo sapiens) (UniProt O00506).

Calcium/calmodulin-dependent protein kinase type 1D (Homo sapiens), sequence (Q8IU85 whole entry, looked up): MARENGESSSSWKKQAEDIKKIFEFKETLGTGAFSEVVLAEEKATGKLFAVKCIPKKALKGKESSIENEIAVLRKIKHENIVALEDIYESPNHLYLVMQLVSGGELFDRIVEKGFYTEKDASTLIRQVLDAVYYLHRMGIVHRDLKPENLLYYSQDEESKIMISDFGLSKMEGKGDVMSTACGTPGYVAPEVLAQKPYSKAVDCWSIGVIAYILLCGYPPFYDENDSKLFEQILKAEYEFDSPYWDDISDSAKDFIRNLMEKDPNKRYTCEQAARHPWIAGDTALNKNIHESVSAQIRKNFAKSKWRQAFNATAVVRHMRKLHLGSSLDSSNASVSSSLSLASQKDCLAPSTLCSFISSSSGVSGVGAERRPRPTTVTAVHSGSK
Serine/threonine-protein kinase VRK2 (Homo sapiens), sequence (Q86Y07 whole entry): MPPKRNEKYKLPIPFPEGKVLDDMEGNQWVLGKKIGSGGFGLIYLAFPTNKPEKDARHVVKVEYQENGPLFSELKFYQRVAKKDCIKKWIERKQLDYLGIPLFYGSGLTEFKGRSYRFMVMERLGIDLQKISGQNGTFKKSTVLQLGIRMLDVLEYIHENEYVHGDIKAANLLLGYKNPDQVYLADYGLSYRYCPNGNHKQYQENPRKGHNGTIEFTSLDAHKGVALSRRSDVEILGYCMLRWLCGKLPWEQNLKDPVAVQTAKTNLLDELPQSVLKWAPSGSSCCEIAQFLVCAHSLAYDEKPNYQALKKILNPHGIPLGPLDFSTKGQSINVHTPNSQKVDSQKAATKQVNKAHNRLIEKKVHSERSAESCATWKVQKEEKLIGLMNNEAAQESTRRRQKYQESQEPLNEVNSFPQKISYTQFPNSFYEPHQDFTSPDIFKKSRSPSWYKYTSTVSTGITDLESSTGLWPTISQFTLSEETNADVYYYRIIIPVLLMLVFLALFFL
Calcium/calmodulin-dependent protein kinase type 1G (Homo sapiens), sequence (Q96NX5 whole entry): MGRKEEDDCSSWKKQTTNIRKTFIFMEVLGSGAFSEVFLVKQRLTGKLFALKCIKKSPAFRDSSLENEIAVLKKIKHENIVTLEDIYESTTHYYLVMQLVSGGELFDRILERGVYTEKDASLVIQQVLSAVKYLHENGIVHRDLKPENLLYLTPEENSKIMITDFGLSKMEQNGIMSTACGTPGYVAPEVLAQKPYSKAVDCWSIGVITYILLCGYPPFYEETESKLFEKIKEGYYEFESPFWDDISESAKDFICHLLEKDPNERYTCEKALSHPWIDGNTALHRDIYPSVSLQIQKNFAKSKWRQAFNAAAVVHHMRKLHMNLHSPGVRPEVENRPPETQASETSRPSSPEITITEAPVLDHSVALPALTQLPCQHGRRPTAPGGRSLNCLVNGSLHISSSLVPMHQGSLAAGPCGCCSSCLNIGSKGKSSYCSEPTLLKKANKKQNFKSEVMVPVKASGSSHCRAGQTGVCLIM
Dual specificity mitogen-activated protein kinase kinase 2, sequence (P36507 whole entry): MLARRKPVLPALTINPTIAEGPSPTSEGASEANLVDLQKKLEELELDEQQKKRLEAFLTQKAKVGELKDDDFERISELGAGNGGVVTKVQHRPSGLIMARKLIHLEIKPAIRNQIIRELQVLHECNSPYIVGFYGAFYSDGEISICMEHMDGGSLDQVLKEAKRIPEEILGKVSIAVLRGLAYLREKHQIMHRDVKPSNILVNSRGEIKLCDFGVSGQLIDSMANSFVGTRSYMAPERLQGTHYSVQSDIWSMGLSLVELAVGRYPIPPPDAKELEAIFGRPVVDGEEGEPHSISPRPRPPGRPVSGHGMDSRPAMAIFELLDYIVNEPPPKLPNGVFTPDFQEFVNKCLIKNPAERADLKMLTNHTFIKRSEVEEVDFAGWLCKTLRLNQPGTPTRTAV
Serine/threonine-protein kinase 16 (Homo sapiens), sequence (O75716 whole entry): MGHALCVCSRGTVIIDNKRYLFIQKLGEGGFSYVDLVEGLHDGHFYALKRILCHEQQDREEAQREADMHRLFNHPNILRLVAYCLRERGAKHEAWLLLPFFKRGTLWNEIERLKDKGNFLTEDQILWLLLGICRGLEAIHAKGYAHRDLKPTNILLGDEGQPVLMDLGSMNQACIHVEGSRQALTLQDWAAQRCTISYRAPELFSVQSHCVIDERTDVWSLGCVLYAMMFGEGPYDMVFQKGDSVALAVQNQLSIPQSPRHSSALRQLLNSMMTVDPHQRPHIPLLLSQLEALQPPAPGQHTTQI

For `N#CC(C#N)=Cc1ccc(O)c(O)c1` [TYRPHOSTIN 23], the ΔTm was determined as 0.2 °C in [1]; 0 °C in [2]; 0.2 °C in experiment [3]; 0.7 °C in [4]; 0.7 °C in [5]; 0.1 °C in [6]. Also, the ΔTm came to 0.3 °C in experiment [7]; 1.2 °C in experiment [8]; 0.6 °C in experiment [9]; 0.8 °C in experiment [10]; 0.2 °C in [11]; 0.6 °C in experiment [12]. Besides, the ΔTm in experiment [13] came to 1.5 °C; in experiment [14], 0.2 °C; in experiment [15], 0.6 °C; in experiment [16], 0.4 °C; in [17], 0.2 °C; in experiment [18] it was 0.6 °C. In addition, the ΔTm in experiment [19] is 0.4 °C; in [20] it was 0.2 °C; in [21], -0.2 °C.

`Cl.Cn1cc(C2=C(c3ccc4cc5n(c4c3)CCC(CN)C5)C(=O)NC2=O)c2ccccc21` (stereo unspecified): the ΔTm in experiment [1] is 0.3 °C; in [2] it was 0.3 °C; in experiment [3], 1 °C; in experiment [4], 1 °C; in experiment [5] it was 0.7 °C; in experiment [6] it was 0.1 °C. For the same compound, the ΔTm is -0.5 °C in experiment [7]; 1.1 °C in [8]; -0.7 °C in experiment [9]; -0.1 °C in [10]; 0 °C in [11]; 1.5 °C in experiment [12]. Further, the ΔTm in experiment [13] is -0.2 °C; in experiment [14] it was 6 °C; in [15], 4.5 °C; in experiment [16] it was 1.2 °C; in experiment [17] it was 0.4 °C; in [18] it was 7.1 °C. Moreover, the thermal shift (ΔTm) was -0.6 °C in [19], 0.4 °C in experiment [20] and 0.7 °C in experiment [21].

As to `COc1cc(OC)c(/C=C2\C(=O)Nc3ccccc32)c(OC)c1`, the ΔTm in experiment [1] is -0.2 °C; in experiment [2], 0 °C; in [3] it was 0.3 °C; in [4] it was 0.1 °C; in experiment [5], -0.3 °C; in experiment [6], -0.4 °C. Besides, the ΔTm in [7] was 0 °C; in experiment [8], 0.4 °C; in [9], 0 °C; in experiment [10], 0.2 °C; in experiment [11] it was -0.1 °C; in experiment [12], 0.4 °C. Further, the ΔTm in [13] was -0.2 °C; in experiment [14] it was -0.2 °C; in experiment [15] it was 0.1 °C; in experiment [16], 0.2 °C; in [17], 0.2 °C; in experiment [18], -0.1 °C. Besides, the ΔTm turned out to be 0.5 °C in experiment [19], 2.2 °C in experiment [20] and 0.1 °C in [21].

On to `C[S+]([O-])c1ccc(CSc2nc(-c3ccc(F)cc3)c(-c3ccncc3)[nH]2)cc1` (stereo unspecified), for which the ΔTm in [1] was 0 °C; in experiment [2], 0 °C; in experiment [3], 0.2 °C; in experiment [4] it was -0.5 °C; in experiment [5], 0.4 °C; in experiment [6], -0.4 °C. Moreover, the ΔTm in experiment [7] was 0.3 °C; in [8] it was 0.5 °C; in experiment [9], -0.2 °C; in [10] it was 0.1 °C; in [11] it was -0.3 °C; in [12], -0.2 °C. The ΔTm in experiment [13] came out at 0.2 °C; in [14], 0.1 °C; in experiment [15], 1.1 °C; in experiment [16] it was 0.5 °C; in experiment [17], 0.4 °C; in experiment [18], 0.1 °C. Also, the ΔTm in [19] turned out to be 0.5 °C; in [20], 0.1 °C; in experiment [21] it was 0.6 °C.

Consider `COc1cc(C[C@H]2C(=O)OC[C@@H]2Cc2ccc(OC)c(OC)c2)ccc1O` [ARCTIGENIN], for which the ΔTm in experiment [1] is 0.1 °C; in experiment [2] it was -0.3 °C; in experiment [3] it was 0.4 °C; in experiment [4], -1 °C; in experiment [5], -0.3 °C; in experiment [6], 0 °C. Moreover, the ΔTm in experiment [7] is -0.4 °C; in experiment [8], 1.1 °C; in [9], -0.7 °C; in [10], -0.1 °C; in experiment [11], 0 °C; in [12], 0.2 °C. The shift in melting temperature (ΔTm) in [13] was -0.2 °C; in experiment [14], -0.2 °C; in experiment [15] it was -0.5 °C; in experiment [16] it was 0 °C; in [17] it was 0.5 °C; in [18], 0.8 °C. The ΔTm was -0.7 °C in [19], 0.5 °C in [20] and 0.1 °C in experiment [21].

Turning to `COc1ccc2c(c[n+](C)c3c4cc5c(cc4ccc23)OCO5)c1OC` [CHELERYTHRINE CHLORIDE], the ΔTm in [1] is -5.3 °C; in [2] it was -1.1 °C; in [3], -1 °C; in experiment [4], -4.4 °C; in [5], 0.1 °C; in experiment [6], -0.9 °C. Besides, the ΔTm in experiment [7] was -0.5 °C; in experiment [8], -1.2 °C; in [9], -2.5 °C; in experiment [10] it was -2.6 °C; in experiment [11], -0.7 °C; in experiment [12] it was 1.4 °C. Also, the ΔTm is -0.4 °C in experiment [13]; -1.3 °C in [14]; -2.4 °C in experiment [15]; -0.4 °C in experiment [16]; 0.1 °C in [17]; -0.4 °C in [18]. In addition, the ΔTm was -0.4 °C in [19], 0 °C in experiment [20] and -0.3 °C in experiment [21].
